Results: EP0341104B1, “Substituted flavonoid compounds, their salts, their manufacture and medicines containing these materials” (MERCK PATENT GmbH, priority 1988, dated 1989)

Tests used:
[1] = tested on: natural killer cell activity; conditions: Wiltrout et al, J. Immunol. 1988; cited from earlier work
murine renal cancer = conditions: Wiltrout et al, J. Immunol. 1988; cited from earlier work
[2] = tested on: ristocetin-induced platelet agglutination; conditions: Rubin et al, Lancet 1987; cited from earlier work
in vivo = conditions: mouse, 400 mg/kg
interferon (IFN) = format: in vivo, Mice BALB/C; conditions: 200 mg/kg intravenously; unit = quantity of IFN in 1 ml of sample reducing viral lysis by 50%; HBSS controls no induction
[3] = tested on: tumored cells of the type YAC-1; assay: stimulation of the activity of killer cells (splenic cells of treated mice, chromium 51 release); format: in vivo, Mice BALB/C; conditions: 200 mg/kg intravenously; spleens taken 24 hours after administration; 4 hours incubation with 1 x 10⁴ YAC-1 cells; HBSS controls no measurable activity
Description: The determination of the activity of killer cells was made in accordance with the following. Mice BALB/C were treated intraveneously, either with 0.25 ml of HBSS or with 200 mg/kg of a compound of formula (IV). Twenty four hours after administration of the compound, the spleens of the animals were reduced to a state of suspension. Debris and cellular wastes are eliminated by sedimentation and the red corpuscles are lysed with distilled water. The cellular suspension obtained was then filtered over sterile gauze and washed twice with HBSS.
Different quantities of splenic cells are incubated with 1 x 10⁴ tumored cells of the type YAC-1 stained with chromium 51. The length of incubation was 4 hours at 37°C in a RPMI 1640-type medium supplemented with 5% of FBS, pencillin (100 U/ml) streptomycin (100 µg/ml), L-glutamine (20 mM), sodium pyruvate (1 mM), and nonessential amino acids (0.1 mM) in a buffered medium. The floating bodies are removed and a count effectuated.
The results are expressed in lytic units (UL₁₀): where UL₁₀ is the quantity necessary to effectuate lysis of 1 x 10⁴ target cells. For example, it was discovered that the compound of formula 19, provided 80 UL. The compound of formula 25 provided 60 UL. The compound of formula 42 provided 110 UL.

[4] = after 20 days

In the case of `O=C(O)Cc1cccc2c(=O)cc(-c3ccccc3)oc12` [flavone-8-acetic acid], the “systemic natural killer cell activity” value [1] is given as “augments”, the “synergy with interleukin-2 (IL-2) for treatment of murine renal cancer” value (murine renal cancer) is given as “synergizes with interleukin-2 (IL-2)” and the ristocetin-induced platelet agglutination [2] is given as “inhibits”. For the same compound, the mortality at 480 h (in vivo) was 100%.

For `O=C(O)Cc1cccc2c(=O)cc(-c3ccc(-c4ccccc4)cc3)oc12` [formula 19, PHENYL-4-PHENYL)2-OXO-4-4H-(1)-BENZOPYRAN-8-ACETIC ACID], the Interferon activity (interferon (IFN)) was 1000 units of IFN and the “activity of killer cells in lytic units (UL₁₀)” value (“activity of killer cells” for short) [3] was 80 UL.

In the case of `O=C(O)Cc1cccc2c(=O)cc(-c3ccc([N+](=O)[O-])cc3)oc12` [formula 25, (NITRO-4-PHENYL)-2-OXO-4-4H-(1)-BENZOPYRAN-8-ACETIC ACID], the Interferon activity (interferon (IFN)) is reported as 1000 units of IFN and the “activity of killer cells” value [3] is reported as 60 UL.

Compound `O=C(O)Cc1ccc2c(=O)cc(-c3ccccc3)oc2c1` [formula 29, OXO-4-PHENYL-2-4H-(1) BENZOPYRAN-7-ACETIC ACID] has a mortality at 480 h (in vivo) of 10%.

In the case of `C=C(C(=O)O)c1cccc2c(=O)cc(-c3ccccc3)oc12` [formula 42, (PHENYL-2-OXO-4-4H-(1) BENZOPYRAN-8-YL)-2-ACRYLIC ACID], the “activity of killer cells” value [3] is reported as 110 UL.

In the case of `Nc1nc(-c2cccc3c(=O)cc(-c4ccccc4)oc23)cs1` [formula 58, (AMINO-2-THIAZOL-4-YL)-8-PHENYL-2-4H-[1] BENZOPYRANONE-4], the mortality rate [4] is reported as “no deaths”.

In the case of `O=C(O)c1cccc2ccc3c(=O)cc(-c4ccccc4)oc3c12` [formula 67, OXO-4-PHENYL-2-4H-NAPHTO[1,2-b]PYRANONE-4], the Interferon activity (interferon (IFN)) is reported as 1000 units of IFN.
